How the values were obtained:
[1] = molecular target: T1, CYP1A2 (Homo sapiens, UniProt P05177); assay: Test Example 6: CYP inhibition test, 7-ethoxyresorufin O-deethylation (CYP1A2); format: in vitro ADME; conditions: pooled human hepatic microsome, 0.5 μmol/L ethoxyresorufin
T1 construct: enzyme, pooled human hepatic microsome 0.2 mg protein/mL; from tissue; host or cells: pooled human liver microsomes
T1 sequence (P05177 1-516): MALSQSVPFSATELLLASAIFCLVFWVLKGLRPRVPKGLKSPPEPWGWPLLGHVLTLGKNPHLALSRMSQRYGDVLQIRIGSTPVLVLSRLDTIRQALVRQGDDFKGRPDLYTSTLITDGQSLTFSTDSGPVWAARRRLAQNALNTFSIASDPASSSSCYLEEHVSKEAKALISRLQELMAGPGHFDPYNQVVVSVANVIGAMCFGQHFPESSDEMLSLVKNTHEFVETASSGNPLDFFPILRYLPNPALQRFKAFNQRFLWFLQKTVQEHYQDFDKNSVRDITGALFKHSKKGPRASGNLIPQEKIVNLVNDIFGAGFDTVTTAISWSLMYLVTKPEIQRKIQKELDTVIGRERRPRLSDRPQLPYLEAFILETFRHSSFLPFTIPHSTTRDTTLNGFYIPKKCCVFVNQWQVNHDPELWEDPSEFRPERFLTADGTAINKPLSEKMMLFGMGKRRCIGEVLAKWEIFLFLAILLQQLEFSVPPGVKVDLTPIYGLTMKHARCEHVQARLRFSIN
Protocol: (§1) Test Example 6 CYP Inhibition Test […] The reaction conditions were as follows: substrate, 0.5 μmol/L ethoxyresorufin (CYP1A2), 100 μmol/L tolbutamide (CYP2C9), 50 μmol/L S-mephenytoin (CYP2C19), 5 μmol/L dextromethorphan (CYP2D6), 1 μmol/L terfenedine (CYP3A4); reaction time, 15 minutes; reaction temperature, 37° C.; enzyme, pooled human hepatic microsome 0.2 mg protein/mL; concentration of the compound of the present invention, 1, 5, 10, 20 μmol/L (four points). Each five kinds of substrates, human hepatic microsome, and the compound of the present invention in 50 mmol/L Hepes buffer as a reaction solution were added to a 96-well plate at the composition as described above. NADPH, as a cofactor was added to initiate metabolism reactions as markers and, after the incubation at 37° C. for 15 minutes, a methanol/acetonitrile=1/1 (v/v) solution was added to stop the reaction. After the centrifugation at 3000 rpm for 15 minutes, resorufin (CYP1A2 metabolite) in the supernatant was quantified by a fluorescent multilabel counter and toltributamide hydroxide (CYP2[…] metabolite), mephenytoin 4' hydroxide (CYP2C19 metabolite), […], and terfenadine alcohol (CYP3A4 metabolite) were quantified by LC/MS/MS. Addition of only DMSO being a solvent dissolving the compound of the present invention to a reaction system was adopted as a control (100%). Remaining activity (%) was calculated at each concentration of the compound of the present invention added as the solution and IC50 was calculated by reverse presumption by a logistic model using a concentration and an inhibition rate.

[2] = molecular target: T2, CYP2D6 (Homo sapiens, UniProt P10635); assay: Test Example 6: CYP inhibition test, dextromethorphan O-demethylation (CYP2D6); format: in vitro ADME; conditions: pooled human hepatic microsome, 5 μmol/L dextromethorphan
T2 construct: enzyme, pooled human hepatic microsome 0.2 mg protein/mL; from tissue; host or cells: pooled human liver microsomes
T2 sequence (P10635 whole entry): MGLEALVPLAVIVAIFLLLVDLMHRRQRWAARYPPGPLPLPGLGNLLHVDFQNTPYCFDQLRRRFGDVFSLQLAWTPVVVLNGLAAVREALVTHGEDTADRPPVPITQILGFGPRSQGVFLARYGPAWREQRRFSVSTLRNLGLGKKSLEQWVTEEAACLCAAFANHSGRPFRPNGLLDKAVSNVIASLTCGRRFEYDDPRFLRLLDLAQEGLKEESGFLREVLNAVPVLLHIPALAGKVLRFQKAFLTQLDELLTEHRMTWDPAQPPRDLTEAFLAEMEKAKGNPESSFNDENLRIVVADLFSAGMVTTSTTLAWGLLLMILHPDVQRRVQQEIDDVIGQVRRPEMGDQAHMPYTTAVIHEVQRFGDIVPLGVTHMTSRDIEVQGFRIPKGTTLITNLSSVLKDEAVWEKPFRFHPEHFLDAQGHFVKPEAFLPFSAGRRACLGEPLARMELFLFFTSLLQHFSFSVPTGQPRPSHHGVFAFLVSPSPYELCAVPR
Protocol: as §1

[3] = tested on: Salmonella typhimurium TA98 strain, TA100 strain; assay: Test Example 7: FAT test (mutagenicity); set-up: key: (−) means that mutagenicity is negative; (+) is positive; conditions: TA98 and TA100 strains, non-metabolism activating and metabolism activating conditions
Protocol: Mutagenicity of a compound of the present invention was evaluated.
[…] of freezing-stored rat typhoid bacillus (Salmonella typhimurium TA98 strain, TA100 strain) was inoculated on 10 mL of a liquid nutrient medium (2.5% Oxoid nutrient broth No. 2), and this was cultured before shaking at 37° C. for 10 hours. 9 mL of a bacterial solution of the TA98 strain was centrifuged (2000×g, 10 minutes) to remove a culturing solution. The bacteria was suspended in 9 mL of a Micro F buffer (K2HPO4: 3.5 g/L, KH2PO4: 1 g/L, (NH4)2SO4: 1 g/L, trisodium citrate dehydrate: 0.25 g/L, MgSO4*7H2O: 0.1 g/L), the suspension was added to 110 mL of an Exposure medium (Micro F buffer containing Biotin: 8 μg/mL, histidine: 0.2 μg/mL, glucose: 8 mg/mL). The TA100 strain was added to 120 mL of the Exposure medium relative to 3.16 mL of the bacterial solution to prepare a test bacterial solution. […] Since a well containing a bacterium which has obtained the proliferation ability by mutation of an amino acid (histidine) synthesizing enzyme gene turns from purple to yellow due to a pH change, the bacterium proliferation well which has turned to yellow in 48 wells per dose was counted, and was assessed by comparing with a negative control group. […]

SMILES | IC50 [1] [µM] | IC50 [2] [µM] | Mutagenicity (FAT test) [3]
Cc1nc(C)c(-c2csc(NC(=O)Cc3ccc(S(C)(=O)=O)cc3)n2)s1 [Compound I-17] | > 20 | > 20 | –
Cc1nc(C)c(-c2csc(NC(=O)C3CCC(F)(F)C3)n2)s1 (stereo not drawn) [Compound I-18] | – | – | (−)
